# Experimental data: patent publication EP1948196B1, “USE OF TETRAORGANOSILICON COMPOUNDS” (Salama, Zoser B., priority 2005, dated 2007)
# Where two headings read alike, the source gives them in different places. Numbered stars: 1 amine (or outer) side, 2 acyl side, 3 side chain; on linkers, the order of the positions; unused ones are H or OH. Bridge positions count the residues as written; N and C are the ends. Peptide text beside a SMILES is read from it. I, II: the chains in the order shown. X2 = c1ccc([Si](O[*:1])(O[*:2])c2ccccc2)cc1
# Columns and labels:
# [1] = tested on: Angiosarkome; experiment: Effect on angiosarcomas
# [2] = tested on: Lymphome; experiment: Effect on lymphomas
# [3] = tested on: Kälber-Aortenendothelzellinie BKEz-7; experiment: tissue or blood; assay type: cell-based; details: for IC50: suspensions, 48 Stunden bei 37°C
# Description: Prüfung auf zytotoxisches Potential an Kälber-Aortenendothelzellinie BKEz-7
# Als Marker für eine zytotoxische Wirkung wird bei Zellen der charakterisierten Kälber-Aortenendothelzellinie BKEz-7 die Hemmkonzentration ermittelt, bei der eine 50%-ige Hemmung der Zellproliferation erfolgt (im Vergleich zu Kontrollkulturen ohne Zusatz eines Zellinhibitors). Die resultierende Reduzierung der Zellzahl um 50% wird als IC 50 ausgedrückt. Die getesteten Silanverbindungen wurden als Suspensionen auf die Kulturen gegeben und 48 Stunden bei 37°C inkubiert. Zusätzlich erfolgten morphologische Kontrollen und Vitalitätsbestimmungen mittels dem Neutralrot-Test. Mit Ausnahme des Di(dodecanoyloxy)dimethylsilans standen alle Ergebnisse der morphologischen Untersuchungen in guter Übereinstimmung. […]
# [4] = tested on: Maus; experiment: Pharmacological observation in the mouse (central, vegetative and toxic effects, acute toxicity); assay type: in vivo; details: for oLD (orienberende letale Dosis): mouse, in vivo
# Description: Pharmakologische Untersuchungen an der Maus
# Die Verbindungen wurden an der Maus auf zentrale, vegetative und toxische Effekte geprüft. Durch systemische Einzelbeobachtungen sind neben der akuten Toxizität (orienberende letale Dosis, oLD) zentrale und vegetative Wirkungen der Testsubstanzen, insbesondere Effekte auf die Motorik und das Reaktionsvermögen, die Haut- und Rektaltemperatur sowie auf die Pupillenmotorik erfasst worden. Die getesteten Dosierungen betrugen 5 •10^-4, 1 • 10^-3 und 5 • 10^-3 mol/kg Körpergewicht Letale Wirkungen konnten bei keiner der Verbindungen beobachtet werden. Die oLD lag für Di(tetradecanoyloxy)dimethylsilan und Di(octadecanoyloxy)dimethylsilan unter 1 • 10^-3 mol/kg Körpergewicht für alle übrigen Verbindungen unter 5 • 10^-3 mollkg Körpergewicht.
# [5] = tested on: Basalzellkarzinome; experiment: Effect on basal cell carcinomas
# [6] = tested on: BxPC3 (pankreatisches Adenokarzinom); experiment: MTT test, triplicate, two-fold dilutions; assay type: cell-based; details: Homo sapiens
# Method: (§1) Die Silan wurden in Ethanol aufgelöst und in Zellkulturmedien in Konzentrationen von bis zu 500 µg/ml resuspendiert. Es wurden MTT Tests in dreifacher Ausführung durchgeführt, für welche doppelte Lösungen (7 Schritte) und colo205 (Kofon-Karzinom), BxPC3 (pankreatisches Adenokarzinom) sowie T47D (Brustkrebs) benutzt wurden.
# [7] = tested on: T47D (Brustkrebs); experiment: MTT test, triplicate, two-fold dilutions; assay type: cell-based; details: Homo sapiens, T47D, read-out: IC50 T47D
# Method: as §1
# [8] = tested on: colo205 (Kofon-Karzinom); experiment: MTT test, triplicate, two-fold dilutions; assay type: cell-based; details: Homo sapiens
# Method: as §1
# [9] = tested on: Osteosarkome; experiment: Effect on osteosarcomas
# [10] = tested on: Seminome; experiment: Effect on seminomas
# [11] = COLO 205, read-out: IC50 Colo205
structure (smiles),measurement,setting,value
C[C@H](N)C(=O)N[C@@H](C)C(=O)N[C@@H](C)C(=O)N[C@@H](C)C(=O)N[C@@H](C)C(=O)N[C@@H](C)C(=O)N[C@@H](C)C(=O)N[C@@H](C)C(=O)N[C@@H](C)C(=O)N[C@@H](C)C(=O)O[Si](OC(=O)[C@H](C)NC(=O)[C@H](C)NC(=O)[C@H](C)NC(=O)[C@H](C)NC(=O)[C@H](C)NC(=O)[C@H](C)NC(=O)[C@H](C)NC(=O)[C@H](C)NC(=O)[C@H](C)NC(=O)[C@H](C)N)(c1ccccc1)c1ccccc1 [Diphenyl bis(decaalanyl)silylester],Wirkung gegen Angiosarkome,[1],zeigen eine Wirkung
CCCCCCCC/C=C\CCCCCCCC(=O)O[Si](C)(C)OC(=O)CCCCCCC/C=C\CCCCCCCC,Wirkung auf Lymphome,[2],zeigen eine Wirkung
CCCCCCCC(=O)O[Si](OC(=O)CCCCCCC)(c1ccccc1)c1ccccc1 [Di(octanoyloxy)diphenylsilan],Bedenkliche Toxizität,[3],-
same,IC50,[3],> 20 µM
same,"zentrale, vegetative und toxische Effekte (Verhaltensänderungen)",[4]; 1•10^-3 mol/kg,"Ataxie, Hyper-aktivität"
same,"zentrale, vegetative und toxische Effekte (Verhaltensänderungen)",[4]; 5•10^-3 mol/kg,"schwache Ataxie, Hyperaktivität"
same,"zentrale, vegetative und toxische Effekte (Verhaltensänderungen)",[4]; 5•10^-4 mol/kg,schwache Hyperaktivität
same,Wirkung auf Basalzellkarzinome,[5],zeigen eine Wirkung
CC(C)[C@H](N)C(=O)N[C@H](C(=O)N[C@H](C(=O)N[C@H](C(=O)O[Si](OC(=O)[C@@H](NC(=O)[C@@H](NC(=O)[C@@H](NC(=O)[C@@H](N)C(C)C)C(C)C)C(C)C)C(C)C)(c1ccccc1)c1ccccc1)C(C)C)C(C)C)C(C)C [Diphenyl bis(tetravalyl)silylester],Wirkung gegen Angiosarkome,[1],zeigen eine Wirkung
CCCCCCCCCCCCCCCCC(=O)O[Si](OC(=O)CCCCCCCCCCCCCCCC)(C(C)C)C(C)C [Di(heptadecanoyloxy)diisopropylsilan],Wirkung auf Lymphome,[2],zeigen eine Wirkung
CC(C)[C@H](N)C(=O)N[C@H](C(=O)N[C@H](C(=O)N[C@H](C(=O)N[C@H](C(=O)N[C@H](C(=O)N[C@H](C(=O)N[C@H](C(=O)N[C@H](C(=O)O[Si](OC(=O)[C@@H](NC(=O)[C@@H](NC(=O)[C@@H](NC(=O)[C@@H](NC(=O)[C@@H](NC(=O)[C@@H](NC(=O)[C@@H](NC(=O)[C@@H](NC(=O)[C@@H](N)C(C)C)C(C)C)C(C)C)C(C)C)C(C)C)C(C)C)C(C)C)C(C)C)C(C)C)(c1ccccc1)c1ccccc1)C(C)C)C(C)C)C(C)C)C(C)C)C(C)C)C(C)C)C(C)C)C(C)C [Diphenyl bis(nonavalyl)silylester] (I: H-VVVVVVVVV / II: H-VVVVVVVVV; linker I:C-II:C via X2),Wirkung gegen Angiosarkome,[1],zeigen eine Wirkung
"CCCCCCCCCCCCC(=O)O[Si](CC)(CC)OC(=O)CCCCCCCCCCCC [Si 6, Di (tridecanoyloxy) diethylsilan]",IC50,"[6]; BXPC-3, read-out: IC50 BxPC3",150 µg/mL
same,IC50,[7],250 µg/mL
same,IC50,[8]; [11],240 µg/mL
CC(C)[C@H](N)C(=O)N[C@H](C(=O)N[C@H](C(=O)N[C@H](C(=O)N[C@H](C(=O)N[C@H](C(=O)O[Si](OC(=O)[C@@H](NC(=O)[C@@H](NC(=O)[C@@H](NC(=O)[C@@H](NC(=O)[C@@H](NC(=O)[C@@H](N)C(C)C)C(C)C)C(C)C)C(C)C)C(C)C)C(C)C)(c1ccccc1)c1ccccc1)C(C)C)C(C)C)C(C)C)C(C)C)C(C)C [Diphenyl bis(hexavalyl)silylester] (I: H-VVVVVV / II: H-VVVVVV; linker I:C-II:C via X2),Wirkung gegen Angiosarkome,[1],zeigen eine Wirkung
CCCCCCCCCC(=O)O[Si](C)(C)OC(=O)CCCCCCCCC [Di(decanoyloxy)dimethylsilan],"zentrale, vegetative und toxische Effekte (Verhaltensänderungen)",[4]; 1•10^-3 mol/kg,Piloerektion
same,"zentrale, vegetative und toxische Effekte (Verhaltensänderungen)",[4]; 5•10^-3 mol/kg,schwach bis mäßig ausgeprägte Verhaltensänderung en
same,"zentrale, vegetative und toxische Effekte (Verhaltensänderungen)",[4]; 5•10^-4 mol/kg,keine Verhaltensänderungen
same,Wirkung auf Osteosarkome,[9],zeigen eine Wirkung
CC/C=C\C/C=C\C/C=C\CCCCCCCC(=O)O[Si](C)(C)OC(=O)CCCCCCC/C=C\C/C=C\C/C=C\CC [Di (lino-lenoylooxy)dimethylsilan],Wirkung auf Lymphome,[2],zeigen eine Wirkung
"CCCCCCCCCCCCCCCC(=O)O[Si](OC(=O)CCCCCCCCCCCCCCC)(c1ccccc1)c1ccccc1 [Si 8, Di (hexadecanoyloxy) diphenylsilan]","zentrale, vegetative und toxische Effekte (Verhaltensänderungen)",[4]; 1•10^-3 mol/kg,keine Verhaltensänderungen
same,"zentrale, vegetative und toxische Effekte (Verhaltensänderungen)",[4]; 5•10^-3 mol/kg,"schwache Ataxie, Hyperaktivität und Piloerektion, Straubtail"
same,"zentrale, vegetative und toxische Effekte (Verhaltensänderungen)",[4]; 5•10^-4 mol/kg,keine Verhaltensänderungen
same,IC50,"[6]; BXPC-3, up to 500 µg/ml, read-out: IC50 BxPC3",30 µg/mL
same,IC50,[7]; up to 500 µg/ml,20 µg/mL
same,IC50,"[8]; COLO 205, up to 500 µg/ml, read-out: IC50 Colo205",300 µg/mL
same,Wirkung auf Basalzellkarzinome,[5],zeigen eine Wirkung
"CCCCCCCCCCCCCC(=O)O[Si](CC)(CC)OC(=O)CCCCCCCCCCCCC [Si 14, Di (tetradecanoyloxy) diethylsilan]",IC50,"[6]; BXPC-3, read-out: IC50 BxPC3",70 µg/mL
same,IC50,[7],65 µg/mL
same,IC50,[8]; [11],250 µg/mL
CCCCCCCCCCCCCCCCCC(=O)O[Si](OC(=O)CCCCCCCCCCCCCCCCC)(C(C)C)C(C)C [Di(octadecanoyloxy)diisopropylsilan],Wirkung auf Lymphome,[2],zeigen eine Wirkung
CCCCC/C=C\C/C=C\CCCCCCCC(=O)O[Si](C)(C)OC(=O)CCCCCCC/C=C\C/C=C\CCCCC [Di(linoylooxy)dimethylsilan],Wirkung auf Lymphome,[2],zeigen eine Wirkung
CCCCC/C=C\C/C=C\CCCCCCCC(=O)O[Si](CC)(CC)OC(=O)CCCCCCC/C=C\C/C=C\CCCCC [Di(linoylooxy)diethylsilan],Wirkung auf Lymphome,[2],zeigen eine Wirkung
CCCCCCCCC(=O)O[Si](CCC)(CCC)OC(=O)CCCCCCCC [Di(nonanoyloxy)dipropylsilan],Wirkung auf Seminome,[10],zeigen eine Wirkung
CCCCCCCCCCCCCC(=O)O[Si](C)(C)OC(=O)CCCCCCCCCCCCC [Di(tetradecanoyloxy)dimethylsilan],Bedenkliche Toxizität,[3],-
same,IC50,[3],110 µM
same,"zentrale, vegetative und toxische Effekte (Verhaltensänderungen)",[4]; 1•10^-3 mol/kg,Ataxie
same,"zentrale, vegetative und toxische Effekte (Verhaltensänderungen)",[4]; 5•10^-4 mol/kg,"schwache Ataxie, Piloerektion"
same,oLD (orienberende letale Dosis),[4],< 1 • 10^-3 mol/kg Körpergewicht
same,Wirkung auf Osteosarkome,[9],zeigen eine Wirkung
CCCCCCCCCCCC(=O)O[Si](OC(=O)CCCCCCCCCCC)(c1ccccc1)c1ccccc1 [Di(dodecanoyloxy)diphenylsilan],Bedenkliche Toxizität,[3],-
same,IC50,[3],36 µM
same,"zentrale, vegetative und toxische Effekte (Verhaltensänderungen)",[4]; 1•10^-3 mol/kg,keine Verhaltensänderungen
same,"zentrale, vegetative und toxische Effekte (Verhaltensänderungen)",[4]; 5•10^-3 mol/kg,keine Verhaltensänderungen
same,"zentrale, vegetative und toxische Effekte (Verhaltensänderungen)",[4]; 5•10^-4 mol/kg,keine Verhältensänderungen
same,Wirkung auf Basalzellkarzinome,[5],zeigen eine Wirkung
CCCCCCCCCC(=O)O[Si](OC(=O)CCCCCCCCC)(c1ccccc1)c1ccccc1 [Di(decanoyloxy)diphenylsilan],Bedenkliche Toxizität,[3],-
same,IC50,[3],14 µM
same,"zentrale, vegetative und toxische Effekte (Verhaltensänderungen)",[4]; 1•10^-3 mol/kg,keine Verhaltensänderungen
same,"zentrale, vegetative und toxische Effekte (Verhaltensänderungen)",[4]; 5•10^-3 mol/kg,schwache Ataxie
same,"zentrale, vegetative und toxische Effekte (Verhaltensänderungen)",[4]; 5•10^-4 mol/kg,keine Verhaltensänderungen
same,Wirkung auf Basalzellkarzinome,[5],zeigen eine Wirkung
CCCCCCCCCCCCCCCCCC(=O)O[Si](C)(C)OC(=O)CCCCCCCCCCCCCCCCC [Di(octadecanoyloxy)dimethylsilan],Bedenkliche Toxizität,[3],-
same,IC50,[3],495 µM
same,"zentrale, vegetative und toxische Effekte (Verhaltensänderungen)",[4]; 1•10^-3 mol/kg,keine Verhaltensänderungen
same,"zentrale, vegetative und toxische Effekte (Verhaltensänderungen)",[4]; 5•10^-4 mol/kg,keine Verhaltensänderungen
same,oLD (orienberende letale Dosis),[4],< 1 • 10^-3 mol/kg Körpergewicht
same,Wirkung auf Osteosarkome,[9],zeigen eine Wirkung
CCCCCCCCC(=O)O[Si](C)(C)OC(=O)CCCCCCCC [Di(nonanoyloxy)dimethylsilan],Wirkung auf Osteosarkome,[9],zeigen eine Wirkung
CCCCCCCC(=O)O[Si](C)(C)OC(=O)CCCCCCC [Di(octanoyloxy)dimethylsilan],Wirkung auf Osteosarkome,[9],zeigen eine Wirkung
CCCCCCCCCC(=O)O[Si](CCC)(CCC)OC(=O)CCCCCCCCC [Di(decanoyloxy)dipropylsilan],Wirkung auf Seminome,[10],zeigen eine Wirkung
CCCCCCCCCCC(=O)O[Si](CCC)(CCC)OC(=O)CCCCCCCCCC [Di(undecanoyloxy) dipropylsilan],Wirkung auf Seminome,[10],zeigen eine Wirkung
